Data: patent publication US7045495B2 (Sloan-Kettering Institute for Cancer Research, priority 1996, dated 2006)
pIC50: −log10 of the molar value. Several values for one entry are separate records, joined by “and”; a condition that tells them apart may be missing. Equal entries are not always repeated. Structures can show the parent of a compound that is named as a salt. Where two headings read alike, the source gives them in different places.

Legend:
[1] = test system: PC-3 prostate cancer cells; conditions: cited from earlier work
SUDHL-4 lymphoma cells = conditions: cited from earlier work
[2] = test system: PKC obtained from MKN-74 gastric cancer cells; test: PKC purified from MKN-74 cells, phosphorylation of myelin basic protein; assay type: biochemical, human; conditions: for PKC activity: no drug 25,000
Text: For these experiments MKN-74 cells were homogenized and PKC was purified on a DEAE cellulose column as described (37). […] A control sample was also run with the PKC pseudosubstrate, which functions as an established PKC inhibitor. The results, as shown in the table below, are expressed as the absolute counts of [^32P]ATP incorporated into myelin basic protein/minute of assay time: […]

MKN-74 cells [3] = test: apoptosis by QFM, Hoechst-33258 staining; assay type: cell-based, human
Experimental: Apoptosis was measured by two different methods: (i) Quantitative fluorescent microscopy (QFM) of nuclear changes induced by apoptosis, as determined by bisbenzimide trihydrochloride (Hoescht-33258) staining of nuclear chromatin (15), and (ii) a terminal deoxynucleotidyl transferase (TdT) assay that labels the 3′-OH ends of DNA fragments produced in apoptotic cells (16). […] MMC was diluted in water. A stock safingol solution was constituted in DMSO and was subsequently diluted at least 1:100 in media for all experiments. […] For QFM determinations, the cells were fixed in 3% paraformaldehyde and incubated at room temperature for 10 minutes. The fixative was removed and the cells were washed with 1×PBS, resuspended in 20 μl 1×PBS containing only 8 μg/ml of bisbenzimide trihydrochloride (Hoechst #33258), and incubated at room temperature for 15 minutes. Aliquots of the cells (10 μl) were placed on glass slides coated with 3-amino-propyl-triethoxysilane, and duplicate samples of 500 cells each were counted and scored for the incidence of apoptotic chromatin condensation using an Olympus BH-2 fluorescence microscope equipped with a BH2-DM2U2UV Dich. Mirror Cube filter (Olympus, Lake Success, N.Y.). For the TdT assays, the ApopTag Kit (Oncor, Gaithersburg, Md.) was used. This method employs a fluoresceinated antidigoxigenin antibody directed against nucleotides of digoxigenin-11-dUTP (d-dUTP) which are catalytically added to the 3-ends fragmented DNA by TdT. Briefly, 1–2×10^6 cells were washed and fixed with 1% paraformaldehyde. The fixed cells were incubated in a reaction mixture containing TdT and d-dUTP for 30 minutes at 37° C. Stop/wash buffer was added, and the cells were resuspended in 100 μl of fluorescinated anti-digoxigenin antibody for 30 minutes at room temperature. The cells were then washed with 0.1% Triton X-100 and counterstained with propidium iodide (PI) solution. Green (d-dUTP labeled DNA strand breaks) and red (PI staining for total DNA content) fluorescence of individual cells were measured on a FACScan flow cytometer (Becton Dickinson, San Jose, Calif.). The resulting bivariate plots enabled the detection of apoptotic events within the cell cycle. The R1 cursor was set using the control specimen to define normal levels of green fluorescence (i.e., basal levels of apoptosis). Cells with fluorescence above the R, cursor were considered apoptotic. The data from 10,000 cells were collected and analyzed using CellFit and LYSYS software (Becton Dickinson).
Apoptosis was again measured by QFM staining.
(§1) Induction of apoptosis was estimated by counting the frequency of condensed nuclear chromatin with Hoechst-33258 stain in duplicate samples of 400 cells.
For these studies apoptosis was measured by quantitative fluorescent microscopy (QFM) determination with bisbenzimide trihydrochloride stain (Hoescht-33258) for condensed nuclear chromatin characteristic of apoptotic cells.
For QFM determinations 500 cells were counted and scored for the incidence of apoptotic chromatin changes under an Olympus BH-2 fluorescence microscope in duplicate samples, ±SD, using a BH2-DM2U2UV Dich. Mirror Cube filter.
To study this further applicants elected to examine five bis-indolylmaleimides with various potencies against PKC. […] The induction of apoptosis was estimated by counting the frequency of condensed nuclear chromatin with Hoechst-33258 stain in duplicate samples of 400 cells.

bcl-2 in OV432 cells = test: bcl-2 expression by Western immunoblotting; assay type: cell-based; conditions: FLAVO concentrations as low as 50 nM
Text: (§2) Over-expression of bcl-2 has been associated with resistance to chemotherapy and inhibition of apoptosis.

[4] = test system: A549, HCT 8, T986, MCF-7 and HL-60 human cancer cell lines; conditions: cited from earlier work
PKC = conditions: flavopiridol; read-out: IC50, PKC enzyme activity; cited from earlier work
MKN-74 cells [5] = test: trypan blue exclusion and alamar blue assays; assay type: cell-based; conditions: Homo sapiens, FLAVO 24 hours
Text: as §2

OV432 = test: trypan blue exclusion and alamar blue assays; assay type: cell-based; conditions: FLAVO 24 hours
Text: as §2

183CLL = test: trypan blue exclusion and alamar blue assays; assay type: cell-based; conditions: FLAVO 24 hours
Text: as §2

bcl-2 in MKN-74 cells = test: bcl-2 expression by Western immunoblotting; assay type: cell-based, human; conditions: 300 nM of FLAVO; co-treatment with MMC 50 μM
Text: as §2

[6] = Fischer 344 rats, cited from earlier work
MDA-MB-468 cells = conditions: cited from earlier work
[7] = molecular target: cyclic-adenosine monophosphate-dependent protein kinase A; conditions: flavopiridol; read-out: IC50, cyclic AMP-dependent protein kinase; cited from earlier work
[8] = cited from earlier work
[9] = test system: MDA-MB-468 breast cancer cells; test: apoptosis by QFM, Hoechst-33258 staining; assay type: cell-based, human; conditions: MDA-MB-468; flavopiridol, MMC
Experimental: PRELIMINARY STUDIES. […] Apoptosis was measured by quantitative fluorescent microscopy (QFM) of nuclear changes induced by apoptosis, as determined by bisbenzimide trihydrochloride (Hoescht-33258) staining of condensed nuclear chromatin (24). For the QFM duplicate samples of 500 cells each were counted and scored for the incidence of apoptotic chromatin condensation using an Olympus BH-2 fluorescence microscope.
Applicants also tested the PKC inhibitor UCN-01 (27) which is currently in phase I clinical trial at the NCI. In contrast to safingol, which inhibits PKC by binding to its regulatory domain, UCN-01 inhibits PKC at its catalytic domain. Therefore, assessment of the effect of UCN-01 on inducing apoptosis in combination with MMC on MDA-MB-468 was also performed. The QFM method to quantitate apoptosis was again used. The conditions tested were identical to those described above for safingol except UCN-01 (1 μM) was substituted for safingol in all the conditions.
as §1

[10] = second phase I trial; cited from earlier work
[11] = dog, in vivo, iv, 2.6 mg/kg; cited from earlier work

CN1CC[C@H](c2c(O)cc(O)c3c(=O)cc(-c4ccccc4Cl)oc23)[C@H](O)C1 (relative stereo) [flavopiridol, 2-(2-chlorophenyl)-5,7-dihydroxy-8-(cis-3-hydroxy-1-methyl-4-piperidinyl)-4H-1-benzopyran-4-one, hydrochloride]
concentration required to produce a similar effect (apoptosis) [1]: at least 1000 nM
concentration inducing apoptosis (SUDHL-4 lymphoma cells): 100 nM
Percent inhibition of PKC activity ([2]; Flavopiridol 34 nM): 84%
PKC activity ([2]; Flavopiridol 34 nM): 4,000 counts of [^32P]ATP incorporated into myelin basic protein/minute
Percent inhibition of PKC activity ([2]; Flavopiridol 340 nM): 87%
PKC activity ([2]; Flavopiridol 340 nM): 3,300 counts of [^32P]ATP incorporated into myelin basic protein/minute
Percent Apoptosis (MKN-74 cells [3]; 24 h continuous (single drug) or concomitant, flavopiridol 300 nM, MMC 1 μg/ml, paclitaxel 50 μM, carboplatin, hydrochloride): 12%±1% and 11.6%±1%
% APOPTOSIS (MKN-74 cells [3]; 24 hours, FLAVO 300 nM, Taxol 50 μM, MMC 1 μg/ml, single drugs or in combination): 17%
percent induction of apoptosis, Concomitant (MKN-74 cells [3]; 24 hours, FLAVO 300 nM, Taxol 50 μM, MMC 1 μg/ml, single drugs or together): 17% ± 2%
induction of apoptosis (QFM) (MKN-74 cells [3]; FIG. 7, 24 hours, flavopiridol 300 nM, MMC 50 μM (as printed b127)): 17%±2%
induction of apoptosis (condensed chromatin, 400 cells) (MKN-74 cells [3]; MKN-74, 24 hours, Flavo 300 nM, MMC 5 μg/ml): 17% ± 2
bcl-2 expression (bcl-2 in OV432 cells): complete loss of bcl-2
concentration range inhibiting colony formation [4]: 250 to 300 nM
pIC50 (PKC): 5.22
pIC50 (MKN-74 cells [5]): < 6.10
pIC50 (OV432): 7.00
pIC50 (183CLL): 6.40
bcl-2 expression (bcl-2 in MKN-74 cells): failed to induce any decrease in bcl-2
Maximal plasma drug concentration (Cmax) [6]: 9500 ng/mL
Plasma clearance [6]: 58 mL/min/kg
elimination half-life (T1/2) [6]: 1.87 h
Cmax ([6]; read-out: Maximal plasma drug concentration (Cmax)): 21.7 µM
cytotoxicity (MDA-MB-468 cells; exposure for 24 hours): essentially no cytotoxicity
cell proliferation (MDA-MB-468 cells; prolonged exposure for 72 hours): inhibits cell proliferation
pIC50 [7]: 3.84
MTD ([8]; one phase I study, 72 hour infusion every 2 weeks): 50 mg/m^2/day
MTD ([8]; the other phase I trial): 56 mg/m^2/day
percentage of cells undergoing apoptosis [9]: 29%±2%
t1/2 [10]: 14 h
tolerability [11]: tolerated without evidence of significant toxicity
